Test results taken from patent US20230143604A1, “QW DOSING OF GIP RECEPTOR AGONIST PEPTIDE COMPOUNDS AND USES THEREOF” (TAKEDA PHARMACEUTICAL COMPANY LIMITED, priority 2020, published 2023).
Starred links: 1 amine or outer side, 2 acyl side, 3 side chain; linkers in the order of their positions; H or OH if unused. Non-standard residues stand in square brackets, D forms with d. Residues, ends and D or L forms follow the SMILES beside them. Groups on a side chain read outwards from the residue. *: point of attachment. C18 diacid = O=C(O)CCCCCCCCCCCCCCCCC(=O)*; γGlu = O=C(O)[C@H](CCC(=O)[*:2])N[*:1]; NMeY = CN[C@@H](Cc1ccc(O)cc1)C(=O)O; AEEA = NCCOCCOCC(=O)O; Aib = CC(C)(N)C(=O)O

assay: physchem; conditions: pH 7.4, aqueous buffer
Outline: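 3 mg of peptide treated with 100 μL portions of 200 mM phosphate buffer pH 7.4, sonicating/vortexing up to 1 min, with further buffer added until fully dissolved. Solubility then quantified by HPLC.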

For `CC[C@H](C)[C@H](NC(=O)[C@H](CO)NC(=O)[C@H](Cc1ccc(O)cc1)NC(=O)[C@H](CC(=O)O)NC(=O)[C@H](CO)NC(=O)[C@@H](NC(=O)[C@H](Cc1ccccc1)NC(=O)[C@@H](NC(=O)CNC(=O)[C@H](CCC(=O)O)NC(=O)[C@@H](C)NC(=O)[C@H](Cc1ccc(O)cc1)NC)[C@@H](C)O)[C@@H](C)CC)C(=O)N[C@@H](C)C(=O)N[C@@H](CC(C)C)C(=O)N[C@@H](CC(=O)O)C(=O)N[C@@H](CCCNC(=N)N)C(=O)N[C@H](C(=O)N[C@@H](Cc1c[nH]cn1)C(=O)N[C@@H](CCC(N)=O)C(=O)N[C@@H](CCC(N)=O)C(=O)N[C@@H](CC(N)=O)C(=O)N[C@@H](Cc1ccccc1)C(=O)N[C@H](C(=O)N[C@@H](CC(N)=O)C(=O)N[C@@H](Cc1c[nH]c2ccccc12)C(=O)N[C@@H](CC(C)C)C(=O)N[C@@H](CC(C)C)C(=O)N[C@@H](C)C(=O)N[C@@H](CCC(N)=O)C(=O)N[C@@H](CCCCNC(=O)COCCOCCNC(=O)COCCOCCNC(=O)CC[C@H](NC(=O)CCCCCCCCCCCCCCCCC(=O)O)C(=O)O)C(=O)O)C(C)C)[C@@H](C)CC` [Compound 243] (H-[NMeY][dA]EGTFISDYSIALDRIHQQNFVNWLLAQK([AEEA-AEEA-γGlu-C18 diacid])-OH; N-terminus and C-terminus assumed), which solubility is on record?
The solubility was ≥ 7000 µg/mL.

With `CC[C@H](C)[C@H](NC(=O)[C@H](CO)NC(=O)[C@H](Cc1ccc(O)cc1)NC(=O)[C@H](CC(=O)O)NC(=O)[C@H](CO)NC(=O)[C@@H](NC(=O)[C@H](Cc1ccccc1)NC(=O)[C@@H](NC(=O)CNC(=O)[C@H](CCC(=O)O)NC(=O)C(C)(C)NC(=O)[C@H](Cc1ccc(O)cc1)NC(C)=O)[C@@H](C)O)[C@@H](C)CC)C(=O)N[C@@H](C)C(=O)N[C@@H](CC(C)C)C(=O)N[C@@H](CC(=O)O)C(=O)N[C@@H](CCCNC(=N)N)C(=O)N[C@H](C(=O)N[C@@H](Cc1c[nH]cn1)C(=O)N[C@@H](CCC(N)=O)C(=O)N[C@@H](CCC(N)=O)C(=O)N[C@@H](CC(N)=O)C(=O)N[C@@H](Cc1ccccc1)C(=O)N[C@H](C(=O)N[C@@H](CC(N)=O)C(=O)N[C@@H](Cc1c[nH]c2ccccc12)C(=O)N[C@@H](CC(C)C)C(=O)N[C@@H](CC(C)C)C(=O)N[C@@H](C)C(=O)N[C@@H](CCC(N)=O)C(=O)N[C@@H](CCCCNC(=O)COCCOCCNC(=O)COCCOCCNC(=O)CC[C@H](NC(=O)CCCCCCCCCCCCCCCCC(=O)O)C(=O)O)C(=O)O)C(C)C)[C@@H](C)CC` [Compound 244] (Ac-Y[Aib]EGTFISDYSIALDRIHQQNFVNWLLAQK([AEEA-AEEA-γGlu-C18 diacid])-OH; C-terminus assumed) as the molecule, how does the solubility read?
The solubility was ≥ 9400 µg/mL.

Which solubility does the source give for `CC[C@H](C)[C@H](NC(=O)[C@H](CO)NC(=O)[C@H](Cc1ccc(O)cc1)NC(=O)[C@H](CC(=O)O)NC(=O)[C@H](CO)NC(=O)[C@@H](NC(=O)[C@H](Cc1ccccc1)NC(=O)[C@@H](NC(=O)CNC(=O)[C@H](CCC(=O)O)NC(=O)C(C)(C)NC(=O)[C@H](Cc1ccc(O)cc1)NC)[C@@H](C)O)[C@@H](C)CC)C(=O)N[C@@H](C)C(=O)N[C@@H](CCCCNC(=O)COCCOCCNC(=O)COCCOCCNC(=O)CC[C@H](NC(=O)CCCCCCCCCCCCCCCCC(=O)O)C(=O)O)C(=O)N[C@@H](CC(=O)O)C(=O)N[C@@H](CCCNC(=N)N)C(=O)N[C@H](C(=O)N[C@@H](Cc1c[nH]cn1)C(=O)N[C@@H](CCC(N)=O)C(=O)N[C@@H](CCC(N)=O)C(=O)N[C@@H](CC(N)=O)C(=O)N[C@@H](Cc1ccccc1)C(=O)N[C@H](C(=O)N[C@@H](CC(N)=O)C(=O)N[C@@H](Cc1c[nH]c2ccccc12)C(=O)N[C@@H](CC(C)C)C(=O)N[C@@H](CC(C)C)C(=O)N[C@@H](C)C(=O)N[C@@H](CCC(N)=O)C(=O)N[C@@H](CCCCN)C(=O)O)C(C)C)[C@@H](C)CC` [Compound 245] (H-[NMeY][Aib]EGTFISDYSIAK([AEEA-AEEA-γGlu-C18 diacid])DRIHQQNFVNWLLAQK-OH; C-terminus assumed) here?
The solubility was ≥ 7500 µg/mL.

With `CC[C@H](C)[C@H](NC(=O)[C@H](CO)NC(=O)[C@H](Cc1ccc(O)cc1)NC(=O)[C@H](CC(=O)O)NC(=O)[C@H](CO)NC(=O)[C@@H](NC(=O)[C@H](Cc1ccccc1)NC(=O)[C@@H](NC(=O)CNC(=O)[C@H](CCC(=O)O)NC(=O)C(C)(C)NC(=O)[C@H](Cc1ccc(O)cc1)NC)[C@@H](C)O)[C@@H](C)CC)C(=O)N[C@@H](C)C(=O)N[C@@H](CC(C)C)C(=O)N[C@@H](CC(=O)O)C(=O)N[C@@H](CCCNC(=N)N)C(=O)N[C@@H](CCCCNC(=O)COCCOCCNC(=O)COCCOCCNC(=O)CC[C@H](NC(=O)CCCCCCCCCCCCCCCCC(=O)O)C(=O)O)C(=O)N[C@@H](Cc1c[nH]cn1)C(=O)N[C@@H](CCC(N)=O)C(=O)N[C@@H](CCC(N)=O)C(=O)N[C@@H](CC(N)=O)C(=O)N[C@@H](Cc1ccccc1)C(=O)N[C@H](C(=O)N[C@@H](CC(N)=O)C(=O)N[C@@H](Cc1c[nH]c2ccccc12)C(=O)N[C@@H](CC(C)C)C(=O)N[C@@H](CC(C)C)C(=O)N[C@@H](C)C(=O)N[C@@H](CCC(N)=O)C(=O)N[C@@H](CCCCN)C(=O)O)C(C)C` [Compound 246] (H-[NMeY][Aib]EGTFISDYSIALDRK([AEEA-AEEA-γGlu-C18 diacid])HQQNFVNWLLAQK-OH; C-terminus assumed) as the molecule, how does the solubility read?
The solubility was ≥ 700 µg/mL.

For `CC[C@H](C)[C@H](NC(=O)[C@H](CO)NC(=O)[C@H](Cc1ccc(O)cc1)NC(=O)[C@H](CC(=O)O)NC(=O)[C@H](CO)NC(=O)[C@@H](NC(=O)[C@H](Cc1ccccc1)NC(=O)[C@@H](NC(=O)CNC(=O)[C@H](CCC(=O)O)NC(=O)C(C)(C)NC(=O)[C@H](Cc1ccc(O)cc1)NC)[C@@H](C)O)[C@@H](C)CC)C(=O)N[C@@H](C)C(=O)N[C@@H](CC(C)C)C(=O)N[C@@H](CC(=O)O)C(=O)N[C@@H](CCCNC(=N)N)C(=O)N[C@H](C(=O)N[C@@H](Cc1c[nH]cn1)C(=O)N[C@@H](CCC(N)=O)C(=O)N[C@@H](CCCCNC(=O)COCCOCCNC(=O)COCCOCCNC(=O)CC[C@H](NC(=O)CCCCCCCCCCCCCCCCC(=O)O)C(=O)O)C(=O)N[C@@H](CC(N)=O)C(=O)N[C@@H](Cc1ccccc1)C(=O)N[C@H](C(=O)N[C@@H](CC(N)=O)C(=O)N[C@@H](Cc1c[nH]c2ccccc12)C(=O)N[C@@H](CC(C)C)C(=O)N[C@@H](CC(C)C)C(=O)N[C@@H](C)C(=O)N[C@@H](CCC(N)=O)C(=O)N[C@@H](CCCCN)C(=O)O)C(C)C)[C@@H](C)CC` [Compound 247] (H-[NMeY][Aib]EGTFISDYSIALDRIHQK([AEEA-AEEA-γGlu-C18 diacid])NFVNWLLAQK-OH; C-terminus assumed), which solubility is on record?
The solubility was ≥ 9900 µg/mL.

Which solubility does the source give for `CC[C@H](C)[C@H](NC(=O)[C@H](CO)NC(=O)[C@H](Cc1ccc(O)cc1)NC(=O)[C@H](CC(=O)O)NC(=O)[C@H](CO)NC(=O)[C@@H](NC(=O)[C@H](Cc1ccccc1)NC(=O)[C@@H](NC(=O)CNC(=O)[C@H](CCC(=O)O)NC(=O)C(C)(C)NC(=O)[C@H](Cc1ccc(O)cc1)NC)[C@@H](C)O)[C@@H](C)CC)C(=O)N[C@@H](C)C(=O)N[C@@H](CC(C)C)C(=O)N[C@@H](CC(=O)O)C(=O)N[C@@H](CCCNC(=N)N)C(=O)N[C@H](C(=O)N[C@@H](Cc1c[nH]cn1)C(=O)N[C@@H](CCC(N)=O)C(=O)NC(C)(C)C(=O)N[C@@H](CC(N)=O)C(=O)N[C@@H](Cc1ccccc1)C(=O)N[C@H](C(=O)N[C@@H](CC(N)=O)C(=O)N[C@@H](Cc1c[nH]c2ccccc12)C(=O)N[C@@H](CC(C)C)C(=O)N[C@@H](CC(C)C)C(=O)N[C@@H](C)C(=O)N[C@@H](CCC(N)=O)C(=O)N[C@@H](CCCCNC(=O)COCCOCCNC(=O)COCCOCCNC(=O)CC[C@H](NC(=O)CCCCCCCCCCCCCCCCC(=O)O)C(=O)O)C(=O)O)C(C)C)[C@@H](C)CC` [Compound 248] (H-[NMeY][Aib]EGTFISDYSIALDRIHQ[Aib]NFVNWLLAQK([AEEA-AEEA-γGlu-C18 diacid])-OH; C-terminus assumed) here?
Its solubility is ≥ 6800 µg/mL.

With `CC[C@H](C)[C@H](NC(=O)[C@H](CO)NC(=O)[C@H](Cc1ccc(O)cc1)NC(=O)[C@H](CC(=O)O)NC(=O)[C@H](CO)NC(=O)[C@@H](NC(=O)[C@H](Cc1ccccc1)NC(=O)[C@@H](NC(=O)CNC(=O)[C@H](CCC(=O)O)NC(=O)C(C)(C)NC(=O)[C@@H](N)Cc1ccc(O)cc1)[C@@H](C)O)[C@@H](C)CC)C(=O)N[C@@H](C)C(=O)N[C@@H](CC(C)C)C(=O)N[C@@H](CC(=O)O)C(=O)N[C@@H](CCCNC(=N)N)C(=O)N[C@H](C(=O)N[C@@H](Cc1c[nH]cn1)C(=O)N[C@@H](CCC(N)=O)C(=O)N[C@@H](CCC(N)=O)C(=O)N[C@@H](CC(N)=O)C(=O)N[C@@H](Cc1ccccc1)C(=O)N[C@H](C(=O)N[C@@H](CC(N)=O)C(=O)N[C@@H](Cc1c[nH]c2ccccc12)C(=O)N[C@@H](CC(C)C)C(=O)N[C@@H](CC(C)C)C(=O)N[C@@H](C)C(=O)N[C@@H](CCC(N)=O)C(=O)N[C@@H](CCCCNC(=O)COCCOCCNC(=O)COCCOCCNC(=O)CC[C@H](NC(=O)CCCCCCCCCCCCCCCCC(=O)O)C(=O)O)C(=O)O)C(C)C)[C@@H](C)CC` [Compound 249] (H-Y[Aib]EGTFISDYSIALDRIHQQNFVNWLLAQK([AEEA-AEEA-γGlu-C18 diacid])-OH; N-terminus and C-terminus assumed) as the molecule, how does the solubility read?
Its solubility is ≥ 6800 µg/mL.

For `CC[C@H](C)[C@H](NC(=O)[C@H](CO)NC(=O)[C@H](Cc1ccc(O)cc1)NC(=O)[C@H](CC(=O)O)NC(=O)[C@H](CO)NC(=O)[C@@H](NC(=O)[C@H](Cc1ccccc1)NC(=O)[C@@H](NC(=O)CNC(=O)[C@H](CCC(=O)O)NC(=O)C(C)(C)NC(=O)[C@H](Cc1ccc(O)cc1)NC)[C@@H](C)O)[C@@H](C)CC)C(=O)N[C@@H](C)C(=O)N[C@@H](CCCCNC(=O)CNC(=O)CNC(=O)CNC(=O)CNC(=O)CNC(=O)CCCCCCCCCCCCCCCCC(=O)O)C(=O)N[C@@H](CC(=O)O)C(=O)N[C@@H](CCCNC(=N)N)C(=O)NC(C)(C)C(=O)N[C@@H](C)C(=O)N[C@@H](CCC(N)=O)C(=O)NC(C)(C)C(=O)N[C@@H](CC(N)=O)C(=O)N[C@@H](Cc1ccccc1)C(=O)N[C@H](C(=O)N[C@@H](CC(N)=O)C(=O)N[C@@H](Cc1c[nH]c2ccccc12)C(=O)N[C@@H](CC(C)C)C(=O)N[C@@H](CC(C)C)C(=O)N[C@@H](C)C(=O)N[C@@H](CCC(N)=O)C(=O)N[C@@H](CCCNC(=N)N)C(N)=O)C(C)C` [Compound 250], which solubility is on record?
The solubility was ≥ 700 µg/mL.
